Among the data in the SangsterLogP compilation are logP and logD values, retold here.

Data set [1] is described as follows: method code SF-AS, from DOI: 10.1016/0223-5234(92)90105-a.
Assay in data set [2]: not given
The source holds these as a separate data set.

A short description of data set [3]: method code SF-AS, from DOI: 10.1021/jm020389w, PMID: 12620073. The following applies: pH 7.4.
Assay in data set [4]: not given
This is another data set of the same source.

A short description of data set [5]: method code SF-AS, from DOI: 10.1562/0031-8655(2002)076<0127:dlbcop>2.0.co;2, PMID: 12194207. The following applies: pH 7.3.
The nature of data set [6]: method code SF-TN, from Korenman, I M.; Lunicheva, V.; Pomerantseva, G.; Khairulina, D. (1974). Distribution of methacrylic acid between organic solvents and water. Zh. Prikl. Khim., 47(10)2432-2434.
Data set [7] can be described thus: method code SF-AS, from PMID: 2160644.
The nature of data set [8]: method code SF-AS, from DOI: 10.1021/acs.jmedchem.5b00731, PMID: 26397825. As to conditions: pH 7.4.
Data set [9] in a line: method code SF-HPLC, from DOI: 10.1021/jm00056a006, PMID: 8474102. As to conditions: pH 7.4.
A short description of data set [10]: method code SF, from DOI: 10.1021/bi00507a030, PMID: 7213619. As to conditions: pH 1.0.
Assay in data set [11]: not given
The source holds these as a separate data set.

The nature of data set [12]: method code SF-AS, from DOI: 10.1021/jm0104926, PMID: 11960499.
A short description of data set [13]: method code SF-AS, from DOI: 10.1016/s0021-9673(01)89384-5.
Data set [14] in a line: method code SF-AS, from DOI: 10.1562/0031-8655(2003)0780411sacotn2.0.co2, PMID: 14626671. The following applies: pH 6.8.
A short description of data set [15]: method code SF-RC, from DOI: 10.1023/a:1015913817221, PMID: 2798313. As to conditions: pH 7.4.
Data set [16] is described as follows: method code SF-AS, from Suikov, S.Yu.; Bondarenko, A.V.; Bogza, S.L.; Lutsyk, A.I. (2003). Distribution of 5-aminopyrazoles and 5-aminoisoxazoles in the octanol-water system. Ukr. Khim. Zh. (Russ. Ed.), 69(5/6)31-34.
A short description of data set [17]: method code SF-TN, from DOI: 10.1007/bf00632830.
Data set [18] in a line: method code G-HPLC, from DOI: 10.1016/s0021-9673(01)94303-1.
Data set [19] is described as follows: method code SF-HPLC, from DOI: 10.1002/ps.2780220406.
Assay in data set [20]: not given
The source holds these as a separate data set.

A short description of data set [21]: method code SF-CR+AS, from DOI: 10.1021/bi00514a045, PMID: 7248282. As to conditions: pH 7.0.
The nature of data set [22]: method code SF-FL, from DOI: 10.1562/0031-8655(2004)79<242:pmolop>2.0.co;2, PMID: 15115296. The following applies: pH 7.4.
Assay in data set [23]: not given
The source holds these as a separate data set.

Assay in data set [24]: not given
The source holds these as a separate data set.

Data set [25] in a line: method code SF-HPLC, from DOI: 10.1016/0378-5173(93)90356-k. As to conditions: pH 7.4.
Data set [26] is described as follows: method code SF-TN, from Korenman, I M.; Gurevich, N.; Kulagina, G. (1973). Extraction of certain n-alkylamines from aqueous solutions. Zh. Prikl. Khim., 46(3)726-728.
Data set [27] is described as follows: method code SF-AS, from DOI: 10.1002/jps.2600600712, PMID: 4398902.
A short description of data set [28]: method code SF-AS, from PMID: 2551304. As to conditions: pH 7.4.
Data set [29] is described as follows: method code SF-HPLC, from DOI: 10.1016/j.ejps.2013.10.002, PMID: 24161609.
Assay in data set [30]: not given
This is another data set of the same source.

Data set [31] in a line: method code SF-AS, from Lee, B.; Shin, J.; Lim, M.; Jang, T.; Park, J.; Kim, K.; Kang, W. (1997). Partition Property of 5-Nitrothiopyrimidine Nucleoside. Bull Korean Chem Soc, 18(7)734-736. As to conditions: pH 7.0.
Data set [32] in a line: method code SF-AS, from DOI: 10.1016/j.dyepig.2012.09.011. The following applies: pH 7.4.
Assay in data set [33]: not given
The source holds these as a separate data set.

Assay in data set [34]: not given
This is another data set of the same source.

Data set [35] is described as follows: method code SF, from DOI: 10.1016/s0960-894x(00)80094-3. As to conditions: pH 7.4.
The nature of data set [36]: method code SF-HPLC, from DOI: 10.1016/s0021-9673(01)88640-4.

`ClCC(Cl)Cl` had a logP of 1.98.
`CCOC(=O)Nc1ccc2nn(C)nc2c1` registered a logP in [1] of 1.83.
As to `FC(F)(F)Cl`, the logP in data set [2] is 1.56.
With `CCOC(=O)Nc1ccc2cc3ccc(N)c(CO)c3nc2c1`, in data set [3], the logD – broadly, lipophilicity at a set pH, counting ionised and neutral species – worked out at 1.55.
`CCCCOC(=O)CC(Cc1cncn1C)C(CC)C(=O)OCc1ccc(COC(=O)C(CC)C(CC(=O)OCCCC)Cc2cncn2C)cc1` (stereo unspecified) yielded a logP in data set [4] of 6.87.
On to `c1ccc2c(c1)-c1cc3[nH]c(cc4nc(cc5[nH]c(cc-2n1)c1ccccc51)-c1ccccc1-4)c1ccccc31`, for which the logD in data set [5] stood at 3.35.
Turning to `C=C(C)C(=O)O`, the logP in data set [6] is 0.93.
The compound `O=C(O)c1cc(=O)[nH]c(=O)[nH]1` came in with a logP in [7] of -0.83.
In data set [4], `CCCOC(=O)CC(Cc1cncn1C)C(CC)C(=O)OCc1ccc(COC(=O)C(CC)C(CC(=O)OCCC)Cc2cncn2C)cc1` (stereo unspecified) displayed a logP of 5.47.
For `CCN(CC)c1ccc(C=C2CC(=Cc3ccc(N(COCCOCCOCCOC)COCCOCCOCCOC)cc3)C2=O)cc1`, the pH-dependent lipophilicity (logD) in data set [8] was determined as 3.2.
In turn, `CC(C)CC(O)C(O)C(CC1CCCCC1)NC(=O)C(Cc1nccs1)NC(=O)C(Cc1ccccc1)CS(=O)(=O)C1CN(C)C1` (stereo unspecified) gave a logD in data set [9] of 3.89.
As for `Oc1cccc(-c2c3nc(c(-c4cccc(O)c4)c4ccc([nH]4)c(-c4cccc(O)c4)c4nc(c(-c5cccc(O)c5)c5ccc2[nH]5)CC4)C=C3)c1`, the logD in data set [5] came out at 5.42.
`CCC(N)=O` returned a logD in data set [10] of -0.66.
In the case of `CC(=O)O[C@H]1C(=O)[C@@]2(C)[C@H]([C@H](OC(=O)c3ccccc3)[C@]3(O)C[C@H](OC(=O)[C@@H](C)O)C(C)=C1C3(C)C)[C@]1(OC(C)=O)CO[C@@H]1C[C@@H]2O`, the logP in data set [11] turned out to be 1.52.
As for `[N-]=[N+]=CC(F)(F)F`, the logP in data set [12] was found to be 1.6.
Compound `Cc1nccnn1` returned a logP in data set [13] of -0.55.
`COC1=C2CC(C)=c3c(C(C)=O)c(OC)c(O)c4c3c2c2c(cc(OC)c3c(OC)cc(O)c4c32)C(=O)C1=O`: the logD in [14] turned out to be 1.67.
Still for that read-out and setting: then `COc1c(O)c2c(=O)cc(OC)c3c4c(OC)cc(=O)c5c(O)c(NCCN(C)C)c6c(c(c1C(C(C)=O)=C(C)C6)c23)c54`, with 0.5.
Consider `NC(N)=S`, for which, in [15], the logD was -0.92.
In data set [16], `Nc1c(-c2ccccc2)c(-c2ccccc2)nn1-c1ccccc1` had a logP of 4.04.
In the case of `CN(C)C`, the logP in [17] stood at 0.27.
`CCCCBr`: the logP in data set [18] worked out at 2.75.
`Clc1ccc(Cn2cncn2)cc1Cl` had a logP in [19] of 2.54.
In data set [20], `COP(=O)(OC)OC=C(Cl)Cl` came in with a logP of 1.4.
On to `CC(=O)OC1C(=O)C2(C)C(O)CC3OCC3(OC(C)=O)C2C(OC(=O)c2ccccc2)C2(O)CC(OC(=O)C(O)CNC(=O)c3ccccc3)C(C)=C1C2(C)C` (stereo unspecified), for which the logP in data set [11] amounted to 1.92.
For `N#CSO`, the logD in [21] stood at 0.32.
The compound `O=S(=O)(O)c1ccc(-c2c3nc(c(-c4ccc(S(=O)(=O)O)cc4)c4ccc([nH]4)c(-c4ccccc4)c4nc(c(-c5ccccc5)c5ccc2[nH]5)C=C4)CC3)cc1` came in with a logD in [22] of 1.79.
In [23], `Cn1cc[nH]c1=S` had a logP of -0.22.
Turning to `O=C(O)CNCP(=O)(O)O`, in [24], the logP was -3.3.
For the compound `COc1ccc(-c2cc(N)n[nH]2)cc1`, in [16], the logP was 1.42.
The compound `CC(C)CC(O)C(O)C(CC1CCCCC1)NC(=O)C(Cc1cscn1)NC(=O)C(Cc1ccccc1)CS(=O)(=O)C1CCN(C)C1` (stereo unspecified) had a logD in [9] of 3.61.
Take `O=c1[nH]cc(F)c(=O)[nH]1`: the logD in data set [25] is -0.7.
Consider `CCCCN`, for which the logP in [26] is 0.74.
The compound `S=C1CCCO1` showed a logP in data set [27] of 0.6.
For the compound `Nc1ccncc1F`, the logD in [28] turned out to be 0.63.
For `O=C(O)[C@H](O)[C@@H](O)C(=O)O`, the logP in [29] was -1.2.
Take `CCC[N+](=O)[O-]`: the logP in data set [30] was found to be 0.86.
On to `S=c1cc[nH]c(=S)[nH]1`, for which the logD in [31] is -0.86.
With `C1=Cc2nc1c(-c1cccs1)c1ccc([nH]1)c(-c1cccs1)c1nc(c(-c3cccs3)c3ccc([nH]3)c2-c2cccs2)C=C1`, the logD in [32] came out at 2.74.
For the compound `COCCOCCOCCOCN(C)c1ccc(C=C2CC(=Cc3ccc(N(C)COCCOCCOCCOC)cc3)C2=O)cc1`, in data set [8], the logD turned out to be 2.86.
For the compound `COP(=O)(OC)OC(Br)C(Cl)(Cl)Br` (stereo unspecified), in data set [33], the logP was 2.19.
Compound `CCOCCO` returned a logP in [34] of -0.28.
Compound `Nc1cccc(-c2c3nc(c(-c4cccc(N)c4)c4ccc([nH]4)c(-c4cccc(N)c4)c4nc(c(-c5cccc(N)c5)c5ccc2[nH]5)C=C4)C=C3)c1` showed a logD in [32] of 3.75.
For the compound `NC1CCN(O)C1=O` (stereo unspecified), the logD in data set [35] is -3.52.
In data set [22], `Oc1cccc(-c2c3nc(c(-c4cccc(O)c4)c4ccc([nH]4)c(-c4cccc(O)c4)c4nc(c(-c5cccc(O)c5)c5ccc2[nH]5)C=C4)C=C3)c1` gave a log distribution coefficient (logD) of 4.93.
With `N#CN=[N+]([O-])c1cnccn1`, the logP in data set [36] came to 0.1.
